Entries after “also recorded” stand apart in the source; their conditions may differ.
Experiments:
His-MUC1-CD = target: T1, His-MUC1-CD (Homo sapiens, UniProt P15941); assay: In-gel in vitro MUC1-CD dimerization/oligomerization assay (non-reducing SDS-PAGE, anti-MUC1-C immunoblot); assay type: biochemical; details: 1 h at room temperature; for formation of MUC1-CD dimers, soluble protein: 1 mM compound
T1 construct: made in house
T1 sequence (P15941 1184-1255): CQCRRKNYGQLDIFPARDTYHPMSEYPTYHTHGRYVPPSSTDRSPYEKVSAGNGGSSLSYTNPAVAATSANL
Experimental: (§1) FIGS. 1A-D. MUC1/CQC peptide blocks MUC1 oligomerization. (FIG. 1A) Schematic representation of the MUC1-C subunit and the 72-amino acid sequence of MUC1-CD (SEQ ID NO: 1) are shown. The N-terminal 15 amino acids (shaded sequence) MUC1/CQC (SEQ ID NO: 10) and mutated MUC1/AQA (SEQ ID NO: 11) peptides were synthesized with the poly-dArg transduction domain. (FIG. 1B) His-MUC1-CD (1.4 mg/ml) was immobilized on a sensor chip in a BIAcore. MUC1/CQC was injected over the chip at 10 μM. Raw binding data were analyzed by BIAevaluation software version 3.0 and fit to a 1:1 Languir binding model. (FIG. 1C) Purified His-MUC1-CD (1.5 mg/ml) was incubated with PBS, 200 μM MUC1/CQC or 200 μM MUC1/AQA for 1 h at room temperature. The proteins were separated in a non-reducing SDS-polyacrylamide gel and analyzed by immunoblotting with anti-MUC1-C. (FIG. 1D) 293 cells were transiently transfected to express an empty vector or GFP-MUC1-CD and Flag-MUC1-CD. At 48 h after transfection, the cells were treated with 5 μM MUC1/CQC or MUC1/AQA for 3 d. The cells were then harvested for immunoblotting with anti-MUC1-C (left panel). Whole cell lysates were also precipitated with anti-Flag and the precipitates were immunoblotted with the indicated antibodies (right panels).
FIG. 7—GO-201 blocks MUC1 oligomerization. Purified His-MUC1-CD was incubated with PBS (control), GO-201, or CP-1 for 1 hr at room temperature. The proteins were separated in a non-reducing SDS-polyacrylamide gel (SDS-PAGE) and analyzed by immunoblotting with anti-MUC1-C antibodies. The formation of dimers and tetramers was inhibited by incubation with GO-201.
FIGS. 12A-D—Apigenin is an inhibitor of MUC1-CD dimerization in vitro and in cells. (FIG. 12A) Structures of apigenin and its analogue baicalein. Using the in vitro screening assay, dimerization of MUC1-CD was assessed in the presence of 100 μM apigenin or 100 μM baicalein each dissolved in 0.1% DMSO. The results (mean±SD of 3 determinations) are expressed as percentage of control dimerization in the presence of DMSO alone. (FIG. 12B) MUC1-CD dimerization was assessed in the presence of the indicated concentrations of apigenin in the in vitro screening assay. […] (FIG. 12C) Soluble MUC1-CD was incubated in the presence of 1% DMSO, 1 mM apigenin or 1 mM baicalein for 1 h at room temperature. Monomers and dimmers were assessed by electrophoresis in a non-reducing gel and immunoblotting with anti-MUC1-C. (FIG. 12D) 293 cells were transiently transfected to express an empty vector or GFP-MUC1-CD and Flag-MUC1-CD. […]
(§2) Purified His-tagged MUC1-CD protein also forms dimers and oligomers when incubated in a buffer in vitro, and these can be detected by electrophoresis in polyacrylamide gels. […] Following extensive washings, the proteins are separated in a non-reducing SDS-polyacrylamide gel and analyzed by immunoblotting with anti-MUC1-CD antibody.
As a positive control for validation of this assay for secondary screening, purified His-MUC1-CD is incubated with either PBS or with GO-201 (CQC peptide) for 1 hr at room temperature. The proteins are separated in a non-reducing SDS-polyacrylamide gel and analyzed by immunoblotting with anti-MUC1-CD antibody.
as §2, with “protein” for “protein also”, “as” for “and these can be”, “antibody. […]” for “antibody.”

[1] = target: T2, GFP-MUC1-CD and Flag-MUC1-CD (Homo sapiens, UniProt P15941); assay: Inhibition of dimerization of MUC1-CD in cyto (coprecipitation in transfected 293 cells); assay type: cell-based; details: for formation of MUC1-CD dimers (anti-Flag precipitates, anti-GFP blot): 75 μM for 3 days
T2 construct: expressed in transfected cells; host or cells: HEK 293 cells (no endogenous MUC1)
T2 sequence (P15941 1184-1255 limits assumed): T1 sequence (P15941 1184-1255)
Experimental: as §1
FIG. 8—293 cells transiently transfected to express an empty vector or GFP-MUC1-CD and Flag-MUC1-CD. At 48 he after transfection, cells were left untreated (control), or treated with 5 μmol/L GO-201 or CP-1 each day for 3 days. The cells were then harvested for immunoblotting with anti-MUC1-C (left). Whole-cell lysates were also precipitated with anti-Flag and the precipitates were immunoblotted with the indicated antibodies (right).
FIGS. 12A-D—Apigenin is an inhibitor of MUC1-CD dimerization in vitro and in cells. (FIG. 12A) Structures of apigenin and its analogue baicalein. Using the in vitro screening assay, dimerization of MUC1-CD was assessed in the presence of 100 μM apigenin or 100 μM baicalein each dissolved in 0.1% DMSO. The results (mean±SD of 3 determinations) are expressed as percentage of control dimerization in the presence of DMSO alone. (FIG. 12B) MUC1-CD dimerization was assessed in the presence of the indicated concentrations of apigenin in the in vitro screening assay. […] (FIG. 12C) Soluble MUC1-CD was incubated in the presence of 1% DMSO, 1 mM apigenin or 1 mM baicalein for 1 h at room temperature. Monomers and dimmers were assessed by electrophoresis in a non-reducing gel and immunoblotting with anti-MUC1-C. (FIG. 12D) 293 cells were transiently transfected to express an empty vector or GFP-MUC1-CD and Flag-MUC1-CD. At six hours after transfection, the cells were left untreated, and treated with 75 μM apigenin or baicalein for 3 days. Whole-cell lysates were precipitated with anti-Flag, and the precipitates were immunoblotted with the indicated antibodies.
Two different versions of MUC1-CD vectors have been generated for transformation of cells: GFP-MUC1-CD and Flag-MUC1-CD. […] At 48 hr post-transfection, cells are incubated with the selected compounds from the primary and/or secondary screening assays. Cells are then harvested and used for immunoblotting with anti-MUC1-C. Total cell lysates are subjected to immunoprecipitation with anti-GFP antibody and the adsorbates are analyzed by immunoblotting with anti-Flag antibody.
293 cells were transfected with vectors expressing GFP, GFP-MUC1-CD or Flag-MUC1-CD in the presence of Lipofectamine as described (Leng et al., 2007).
The inventors generated two different versions of MUC1-CD vectors for transfecting into cells: GFP-MUC1-CD and Flag-MUC1-CD. […] At 48 hours post-transfection, cells are incubated with selected compounds. The cells were harvested for immunoblotting with anti-MUC1-C. Total cell lysates are subjected to immunoprecipitation with anti-GFP antibody and the adsorbates are analyzed by immunoblotting with anti-Flag antibody. An inhibitor of MUC1-CD dimerization will inhibit dimerization of MUC1-CD in cyto. […]

[2] = tested on: MUC1-expressing cancer cells; assay: Secondary screen against MUC1-expressing cancer cells in vitro; assay type: cell-based; details: legend: ZR-75-1 breast carcinoma cells, 2 days, anti-MUC1-C immunoblot
Experimental: ZR-75-1 breast carcinoma cells were treated with […] Kaempterol for 2 days. Total cell lysates were then analyzed by immunoblotting with anti-MUC1-C antibody (FIG. 17A) or with anti-Actin antibodies (FIG. 17B).
Initial screens were performed in the presence of compounds at a concentration of 100 μM.

[3] = transfected 293 cells, 5 μM peptide for 3 d

Row | interaction between Flag-MUC1-CD and GFP-MUC1-CD [1, 3] | formation of MUC1-CD dimers, soluble protein (His-MUC1-CD) | formation of MUC1-CD dimers (anti-Flag precipitates, anti-GFP blot) ([1]; transfected 293 cells) | interaction between Flag-MUC1-CD and GFP-MUC1-CD ([1]; transfected HEK 293 cells, 5 μM GO-201 or CP-1 each day for 3 days) | interaction between Flag-MUC1-CD and GFP-MUC1-CD ([1]; transfected HEK 293 cells, 5 mM GO-201 as printed) | Compound | His-MUC1-CD oligomer formation (His-MUC1-CD; 200 μM peptide) | inhibition (FIGS. 17A-B) [2] | His-MUC1-CD oligomer formation (His-MUC1-CD; GO-201 positive control)
1 | no apparent effect |  |  |  |  | MUC1/AQA: control peptide in which the CQC motif was altered to AQA (SEQ ID NO: 11) (AQARRKNYGQLDIFP) [reference compound] | little if any effect |  | 
2 |  | little effect | not |  |  | O=c1cc(-c2ccccc2)oc2cc(O)c(O)c(O)c12 [Baicalein, 5,6,7-trihydroxyflavone, reference compound] |  | did not | 
3 |  | completely blocked | completely blocked |  |  | O=c1cc(-c2ccc(O)cc2)oc2cc(O)cc(O)c12 [Apigenin, 4′,5,7-trihydroxyflavone] |  | showed inhibition | 
4 | disruption of the interaction |  |  | disruption of the interaction | disruption of the interaction | CC[C@H](C)[C@H](NC(=O)[C@H](CC(=O)O)NC(=O)[C@H](CC(C)C)NC(=O)[C@H](CCC(N)=O)NC(=O)CNC(=O)[C@H](Cc1ccc(O)cc1)NC(=O)[C@H](CC(N)=O)NC(=O)[C@H](CCCCN)NC(=O)[C@H](CCCNC(=N)N)NC(=O)[C@H](CCCNC(=N)N)NC(=O)[C@H](CS)NC(=O)[C@H](CCC(N)=O)NC(=O)[C@H](CS)NC(=O)[C@@H](CCCNC(=N)N)NC(=O)[C@@H](CCCNC(=N)N)NC(=O)[C@@H](CCCNC(=N)N)NC(=O)[C@@H](CCCNC(=N)N)NC(=O)[C@@H](CCCNC(=N)N)NC(=O)[C@@H](CCCNC(=N)N)NC(=O)[C@@H](CCCNC(=N)N)NC(=O)[C@@H](CCCNC(=N)N)NC(=O)[C@H](N)CCCNC(=N)N)C(=O)N[C@@H](Cc1ccccc1)C(=O)N1CCC[C@H]1C(=O)O [MUC1/CQC] | substantially decreased oligomer formation |  | substantially decreases oligomer formation; also recorded: inhibited

— patent publication US8952054B2, “Small molecule inhibitors of MUC1 and methods of identifying the same” (Dana-Farber Cancer Institute, Inc., priority 2010, dated 2015)
